Here are results for eleven compounds from patent publication US5661130A, “Absorption enhancers for drug administration” (The UAB Research Foundation, priority 1993, dated 1997).

Series [1] relates to normal rats with blood glucose elevated by xylazine/ketamine anesthesia. Nature of the series: Hypoglycemic effect of insulin eye drops with absorption enhancer in anesthetized rats. The format is in vivo, rat. As for the experimental part:
This mimics the hyperglycemic state seen in diabetic animals and humans. The elevated levels of D-glucose that occur in response to anesthesia provide an optimal system in which to measure any systemic hypoglycemic action of insulin-containing eye drops.
Adult male Sprague-Dawley rats (250-350g) were fed ad libitum, and experiments were conducted between 10:00 a.m. and 3:00 p.m. Rats were anesthetized with a mixture of xylazine (7.5 mg/kg) and ketamine (50 mg/kg) given intraperitoneally (IP) and allowed to stabilize for 50-90 min before the administration of eye drops. […] Blood D-glucose values were measured by collecting a drop of blood from the tail vein at 5-10 min intervals throughout the experiment and applying the blood to glucometer strips (Chemstrip bG) according to directions provided with the instrument (Accu-Chek II, Boehringer Mannheim Diagnostics; Indianapolis, Ind.).
Eye drops were instilled at time 0 using a plastic disposable pipette tip with the eyes held open, and the rat was kept in a horizontal position on a warming pad (37° C.) throughout the protocol. […] Octyl β-D-maltoside, decyl-β-D-maltoside, dodecyl-β-D-maltoside, tridecyl-β-D-maltoside and tetradecyl-β-D-maltoside were obtained from Anatrace, Inc. (Maumee, Ohio).

In another series the test system is rectal mucosa of rats. The note with it: Murakami et al.; cited from earlier work.
A further series concerns rats. Nature of the series: Hyperglycemic effect of glucagon eye drops with surfactant. It counts as in vivo, rat. To be noted: for blood D-glucose values after glucagon eye drops (in words): surfactant plus glucagon, rats previously treated with eye drops of same surfactant plus insulin; for Blood Glucose Concentration: glucagon eye drops with 0.5% surfactant agent added after 120 min (after insulin eye drops). As for the experimental part: Glucagon absorption from the eye was measured in rats given eye drops containing various surfactants plus glucagon (30 μg) (Eli Lilly, Indianapolis, Ind.) by monitoring an elevation in blood D-glucose levels. […] Once again, paired animals that received eye drops containing the surfactant agents only, or glucagon only, could be compared to animals receiving eye drops with surfactant agents and glucagon. […] Additionally, the use of glucagon eyedrops to treat a hypoglycemic crisis is now possible provided that an appropriate surfactant agent is included in the eye drop formulation.

The test system of series [2] is intact mouse fibrosarcoma cells. The note with it: LeGrue et al.; cited from earlier work.
Series [3] has as its system monocytes or endothelial cells. The note with it: DiCorleto et al.; cited from earlier work.
The test system of series [4] is normal rats with blood glucose elevated by xylazine/ketamine anesthesia. Nature of the series: Hypoglycemic effect of insulin nose drop with absorption enhancer. The format is in vivo, rat. To be noted: nose drop 0.2% insulin with 0.5% tetradecylmaltoside, after eye drops. As for the experimental part:
Adult male Sprague-Dawley rats (250-350g) were fed ad libitum, and experiments were conducted between 10:00 a.m. and 3:00 p.m. Rats were anesthetized with a mixture of xylazine (7.5 mg/kg) and ketamine (50 mg/kg) given intraperitoneally (IP) and allowed to stabilize for 50-90 min before the administration of eye drops. Anesthesia of a normal rat with xylazine/ketamine produces an elevation in blood glucose values which provides an optimal state to determine the systemic hypoglycemic action of insulin-containing eye drops. Blood D-glucose values were measured by collecting a drop of blood from the tail vein at 5-10 min intervals throughout the experiment and applying the blood to glucometer strips (Chemstrip bG) according to directions provided with the instrument (Accu-Chek II, Boehringer Mannheim Diagnostics; Indianapolis, Ind.). Blood D-glucose values ranged from 200 to 400 mg/dl in anesthetized nondiabetic rats.
Eye drops were instilled at time 0 using a plastic disposable pipette tip with the eyes held open, and the rat was kept in a horizontal position on a warming pad (37° C.) throughout the protocol. […] Octyl β-D-maltoside, decyl-β-D-maltoside, dodecyl-β-D-maltoside, tridecyl-β-D-maltoside and tetradecyl-β-D-maltoside were obtained from Anatrace, Inc. (Maumee, Ohio). […]

The mark [5] stands for this setting: 0.25% enhancer with 0.2% regular porcine insulin.
The mark [6] stands for this setting: 0.5% enhancer with 0.2% regular porcine insulin.
Where [7] appears, read: enhancer concentration not singled out (0.125-0.5%), with 0.2% regular porcine insulin.

`CCCCCCCCCCCCO[C@@H]1O[C@H](CO)[C@@H](O[C@H]2O[C@H](CO)[C@@H](O)[C@H](O)[C@H]2O)[C@H](O)[C@H]1O` [Dodecyl Maltoside, dodecyl-β-D-maltoside]: the “Effect as absorption enhancer on blood glucose, insulin eye drops (in words)” value (“Effect as absorption enhancer” for short) in series [1] (0.125% enhancer with 0.2% regular porcine insulin) is “ineffective”; in series [1] (setting [5]) it was “smaller and more transient effect”; in series [1] (0.375% enhancer with 0.2% regular porcine insulin) it was “equally effective”; in series [1] (0.5% enhancer with 0.2% regular porcine insulin, listed as dodecyl-β-D-maltoside), “prompt and sustained fall in blood glucose levels”; in series [1] (0.5% enhancer with 0.2% regular porcine insulin, listed as dodecylmaltoside), “equally effective”. For the same compound, the “histological change to the rectal tissue” value in the series on rectal mucosa of rats is “without producing any apparent histological change”. In the series on rectal mucosa of rats, the “promoting absorption of dextrans and carboxyfluoroscein across the rectal mucosa” value is recorded as “effective”.
On to `CCCCCCCCCCO[C@@H]1O[C@H](CO)[C@@H](O[C@H]2O[C@H](CO)[C@@H](O)[C@H](O)[C@H]2O)[C@H](O)[C@H]1O` [Decyl Maltoside, decyl-β-D-maltoside], for which the “Effect as absorption enhancer” value in series [1] (setting [6]) was “prompt and sustained fall in blood glucose levels”; in series [1] (setting [7]), “less”. Moreover, the “blood D-glucose values after glucagon eye drops (in words)” value (“blood D-glucose values” below) with rats is “significantly increased”.
Turning to `CCCCCCCOC1O[C@H](CO)[C@@H](O)[C@H](O)[C@H]1O` (stereo partly drawn) [heptylglucoside, heptylglucopyranoside], the “Effect as absorption enhancer” value in series [1] (setting [6]) was “ineffective”.
As to `CCCCCCCCO[C@@H]1O[C@H](CO)[C@@H](O)[C@H](O)[C@H]1O` [Octylglucoside, octyl β-D-glucoside], the “cytolysis of intact mouse fibrosarcoma cells” value in series [2] was “non-cytolytic”. For the same compound, in series [3], the “viability or morphology of monocytes or endothelial cells” value is “no effect”.
For the compound `CCCCCCOC1O[C@H](CO)[C@@H](O)[C@H](O)[C@H]1O` (stereo partly drawn) [hexylglucoside, Hexylglucopyranoside], the “Effect as absorption enhancer” value in series [1] (setting [6]) is recorded as “ineffective”.
For `CCCCCCCCO[C@@H]1O[C@H](CO)[C@@H](O[C@H]2O[C@H](CO)[C@@H](O)[C@H](O)[C@H]2O)[C@H](O)[C@H]1O` [octylmaltoside, Octyl β-D-maltoside], the “Effect as absorption enhancer” value in series [1] (setting [7]) is “no”.
With dodecylsucrose [Dodecyl Sucrose], the blood glucose levels in series [1] (insulin eye drops with 0.125% dodecylsucrose, time 0 min) stood at 335 mg/dL; in series [1] (insulin eye drops with 0.125% dodecylsucrose, time 120 min), 150 mg/dL. Also, in the series with rats, the “blood D-glucose values” value is listed as “significantly increased”.
As to decylsucrose, the “Effect as absorption enhancer” value in series [1] (setting [6]) is “effective in reducing blood glucose levels”. Further, the blood glucose levels stood at 313 mg/dL in series [1] (insulin eye drops with 0.5% decylsucrose, time 0 min) and 164 mg/dL in series [1] (insulin eye drops with 0.5% decylsucrose, time 120 min).
As for `CCCCCCCCCCCCCOC1OC(CO)C(OC2OC(CO)C(O)C(O)C2O)C(O)C1O` [Tridecyl Maltoside, tridecyl-β-D-maltoside], the “Effect as absorption enhancer” value is reported as “sustained for the two hour time course of the experiment” in series [1] (setting [5]), “effective” in series [1] (setting [6]) and “dose-dependent effect” in series [1] (setting [7]). Also, the “Blood Glucose Concentration” value in series [1] (0.5% surfactant agent, time -10 min, before insulin eye drops) is 307 mg/dL; in series [1] (0.5% surfactant agent, time -20 min, before insulin eye drops) it was 255 mg/dL; in series [1] (insulin eye drops with 0.5% surfactant agent, time 0 min) it was 323 mg/dL; in series [1] (insulin eye drops with 0.5% surfactant agent, time 10 min), 309 mg/dL; in series [1] (insulin eye drops with 0.5% surfactant agent, time 20 min) it was 217 mg/dL; in series [1] (insulin eye drops with 0.5% surfactant agent, time 30 min) it was 131 mg/dL. Besides, the “Blood Glucose Concentration” value in series [1] (insulin eye drops with 0.5% surfactant agent, time 40 min) is 100 mg/dL; in series [1] (insulin eye drops with 0.5% surfactant agent, time 50 min), 87 mg/dL; in series [1] (insulin eye drops with 0.5% surfactant agent, time 60 min) it was 107 mg/dL; in series [1] (insulin eye drops with 0.5% surfactant agent, time 70 min), 115 mg/dL; in series [1] (insulin eye drops with 0.5% surfactant agent, time 80 min), 79 mg/dL; in series [1] (insulin eye drops with 0.5% surfactant agent, time 90 min), 85 mg/dL. For the same compound, the “Blood Glucose Concentration” value in series [1] (insulin eye drops with 0.5% surfactant agent, time 100 min) was 76 mg/dL; in series [1] (insulin eye drops with 0.5% surfactant agent, time 110 min), 74 mg/dL; in series [1] (insulin eye drops with 0.5% surfactant agent, time 120 min), 75 mg/dL; with rats (time 130 min), 82 mg/dL; with rats (time 140 min), 121 mg/dL; with rats (time 150 min), 148 mg/dL. Besides, the “Blood Glucose Concentration” value in the series on rats (time 160 min) stood at 173 mg/dL; in the series with rats (time 170 min), 162 mg/dL; in the series with rats (time 180 min) it was 162 mg/dL; in the series with rats (time 190 min) it was 156 mg/dL. In addition, the “blood D-glucose values” value in the series on rats is “significantly increased”.
On to `CCCCCCCCCCCCCCO[C@@H]1O[C@H](CO)[C@@H](O[C@H]2O[C@H](CO)[C@@H](O)[C@H](O)[C@H]2O)[C@H](O)[C@H]1O` [Tetradecyl Maltoside, tetradecyl-β-D-maltoside], for which, in series [4], the “blood glucose levels after nose drop (in words)” value was “further decreased”. The “Effect as absorption enhancer” value was “effective” in series [1] (0.125% enhancer with 0.2% regular porcine insulin, listed as tetradecyl maltoside); “prompt and prominent drop in blood glucose levels” in series [1] (0.125% enhancer with 0.2% regular porcine insulin, listed as tetradecylmaltoside); “effective” in series [1] (setting [6]).
Consider `CCCCCCCCCOC1O[C@H](CO)[C@@H](O)[C@H](O)[C@H]1O` (stereo partly drawn) [nonylglucoside, nonylglucopyranoside], for which the “Effect as absorption enhancer” value in series [1] (setting [6]) is “effectively stimulated insulin absorption”. For the same compound, the blood glucose levels amounted to 297 mg/dL in series [1] (insulin eye drops with 0.5% nonylglucoside, initial value (from)) and 150 mg/dL in series [1] (insulin eye drops with 0.5% nonylglucoside, reduced value (to)).
